The text below walks through data of US20110319287A1, “MODULATOR ASSAY” (ADDEX PHARMA S.A., priority 2009, published 2011).

Peptide text beside a SMILES is read from it. * marks the point of attachment. Cbz = O=C(OCc1ccccc1)*; CH2F = FC*

Test [1] relates to TNF-induced relocalisation of EYFP-TRADD (TNFR1-containing complex I) in HeLa cells. Nature of the test: TNF-mediated relocation of fluorescently tagged TRADD in Clone #49-E2 HeLa cells, 384-well (Example 2). The format is cell-based, human. The note with it: for effect of downstream signalling inhibitors on detectable EYFP-TRADD clusters: increasing concentrations, in the presence of TNF, FIGS. 14-16; for selectivity: relocalisation of the reporter molecule EYFP-TRADD effected by other compounds or molecules: added instead of TNF, FIG. 12. On the procedure:
The following experimental procedure to detect the reporter molecule in the presence of absence of a “test” compound (or molecule, as described below) was conducted.
On day 1, 10^3 cells per well were plated in thin glass bottom 384 wells plate in 50 μl of culture media (DMEM glutamax, 10% FBS, peni-strep, geneticin, hygromycin). The cells were incubated overnight at 37° C. On day 2, media was aspirated, and 35 μl of warm DMEM, 2, 5% FBS, HEPES 10 mM added. Then, 15 μl of 4× the test compound diluted in DMEM, 2, 5% FBS, HEPES 10 mM was added to cells using a Biomek laboratory automation workstation (Beckman-Coulter). This was incubated at room temperature for 1.5 min. […] The cells were washed three times with PBS 1× using an Embla 384 Cell Washer (Molecular Devices). Cells were fixed by adding PBS 1×, 5% PFA+Hoescht 0.2 μg/ml using a Multidrop 384 dispensor (Thermo Scientific; 30 μl/well) followed by an incubation for 20 min at room temperature in the dark. After a further three washes of the cells with PBS 1× using the Embla 384 Cell Washer, 60 μl per well of PBS 1×, 1% peni-strep was added. The plate was covered with a transparent sealing film. Readings were then taken on the Scientific Cellomics ArrayScan HCS Reader automated microscope system as used in Example 1.

Test [2] has as its system TNF-mediated relocation of TRADD-EYFP in HeLa cells. Nature of the test: TNF-mediated relocation of TRADD-EYFP / EYFP-TRADD in stably transfected HeLa cells (Example 1, clone HeLa/TRADD-EYFP#49). The format is cell-based, human. To be noted: for blocking of TNF-induced relocalisation of fluorescently tagged TRADD to punctuate structures: in the presence of TNF, R-7050 100 μM with 1000 ng/ml TNF (FIG. 6), etanercept FIG. 9.
Excerpt: The pTREhyg-EYFP-TRADD and pTREhyg-TRADD-EYFP expression vectors were stably transfected using PolyFect® Transfection Reagent (Qiagen), according to the manufacturer's protocol, into HeLa Tet-On Cell Line cells (Clontech Laboratories, Inc.). This cell line is a neomycin resistant human cervical epithelioid carcinoma cell line transformed with a modified version of pTet-On which has a nuclear localization signal fused to the N-terminus (pUHD172-1neo).
Intracellular location of EYFP-TRADD and TRADD-EYFP was determined using fluorescence microscopy. Using a fluorescence microscope, cells are illuminated with light of a specific wavelength which is absorbed by the EYFP, causing it to emit longer wavelengths of light (of a different colour than the absorbed light). The illumination light is separated from the much weaker emitted fluorescence through the use of an emission filter, and an image of the cell created.
We then used an automated microscope system (a Thermo Scientific Cellomics ArrayScan HCS Reader) as an automated fluorescence microscopic imaging system designed for high content screening and high content analysis. The instrument features include optics by Carl Zeiss, broad white-light source, 12-bit cooled CCD camera, and controller software. The instrument is designed to work with image analysis modules (Thermo Scientific BioApplications) that automatically convert images into numeric data that capture changes in cell size, shape, intensity, and other properties. The system allows: high content screening, analysis of cells containing fluorescent reporter molecules in an array of locations, treating the cells in the array of locations with one or more test compounds, imaging numerous cells in each location with fluorescence optics, and converting the optical information into digital data. This digital data was then used to determine the positioning, distribution, environment or activity of the fluorescently labelled reporter molecules (EYFP-TRADD or TRADD-EYFP) in the transfected HeLa cells and the distribution of the cells. This information was analysed in terms of a positive, negative or null effect of each test compound being examined. This system allowed differences between untreated and treated cells to be measured, for example by counting the number of fluorescent spots (rather than diffuse fluorescence) in cells.
Using GraphPad Prism (v. 4.01, San Diego, Calif., USA), a dose-response curve was generated (FIG. 7). Percentage responders (y-axis values in FIGS. 7 and 8) were determined as the number of cells with more than five spots, which is an alternative but qualitatively similar measurement to spot count per cell (see below).

For test [3], the target named is T1, TL1A-activated DR3 receptor (Homo sapiens, UniProt Q93038, P167L).
T1 construct: (N); expressed in transfected cells; host or cells: HeLa Tet-On cells stably expressing TRADD-EYFP, transfected with pTRE2-DR3 (HeLa TRADD DR3)
T1 sequence (Q93038 with tags, fused parts or gaps P167L): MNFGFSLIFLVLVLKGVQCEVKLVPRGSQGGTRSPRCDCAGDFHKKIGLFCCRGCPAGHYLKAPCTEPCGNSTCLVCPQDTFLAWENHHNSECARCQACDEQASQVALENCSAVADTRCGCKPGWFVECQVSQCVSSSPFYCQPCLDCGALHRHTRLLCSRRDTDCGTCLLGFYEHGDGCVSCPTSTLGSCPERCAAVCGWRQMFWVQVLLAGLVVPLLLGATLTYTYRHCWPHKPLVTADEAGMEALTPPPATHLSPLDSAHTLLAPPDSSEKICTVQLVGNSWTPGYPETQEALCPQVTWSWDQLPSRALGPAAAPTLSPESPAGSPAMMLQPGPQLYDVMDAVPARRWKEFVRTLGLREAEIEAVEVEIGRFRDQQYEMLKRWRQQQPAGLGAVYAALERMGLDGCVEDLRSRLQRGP
Kind of test: TL1A-induced TRADD-EYFP relocation in HeLa TRADD DR3 recombinant cells (Example 3). The format is cell-based. The note with it: FIG. 17. The source says:
(§1) In a further example of the present invention, a method involving the TL1A-activated DR3 receptor was developed. The TRADD-EYFP HeLa clones comprising the TRADD-EYFP reporter molecule transfected into HeLa cells as described in Example 1 was employed. The DR3 receptor (cDNA sequence shown in SEQ ID NO: 19 and encoded protein shown in SEQ ID NO: 20) which had been cloned in the vector pCR3.1 (Invitrogen) was transferred into the vector pTre2 (Clontech) using the Gateway® cloning technique with the primers Attb1 Forward primer (SEQ ID NO: 21) and Attb2 Reverse primer (SEQ ID NO: 22), yielding a pTRE2-DR3 expression vector (SEQ ID NO: 23). This expression vector was then transfected into the TRADD-EYFP HeLa clones to produce a double transformants designated HeLa TRADD DR3.
(§2) Monitoring and quantification of the TRADD-EYFP reporter molecule was conducted as described in Examples 1 and 2 above. […] The data of FIG. 17 are depicted graphically in FIG. 18.

Test [4] relates to TNF-induced TRADD relocalisation in HeLa TRADD DR3 cells. Nature of the test: TNF-induced TRADD-EYFP relocation in HeLa TRADD DR3 recombinant cells (Example 3). The format is cell-based, human. To be noted: in the presence of 100 ng/ml TNF; FIG. 19.
Excerpt: as §1, §2

Consider `CC[C@H](C)[C@H](NC(=O)OCc1ccccc1)C(=O)N[C@@H](CCC(=O)OC)C(=O)N[C@H](C(=O)N[C@@H](CC(=O)OC)C(=O)CF)[C@@H](C)O` [Z-IETD-FMK] (Cbz-IE(OMe)TD(OMe)-CH2F), for which the “effect of downstream signalling inhibitors on detectable EYFP-TRADD clusters” value in test [1] was “no dissociation of clusters”. Consider “Polyinosinic-polycytidylic acid potassium salt [Poly I:C]”, for which the “selectivity: relocalisation of the reporter molecule EYFP-TRADD effected by other compounds or molecules” value (from here on “selectivity: relocalisation”) in test [1] is “not effected”. `FC(F)(F)c1nnc2c(Sc3ccccc3)nc3ccc(Cl)cc3n12` [R-7050]: in test [2], the “blocking of TNF-induced relocalisation of fluorescently tagged TRADD to punctuate structures” value is “blocked”. Further, the IC50 in test [2] (on 1000 ng/ml TNF, FIG. 8) was determined as 2100 nM. As to “TL1A: Recombinant Human TL1A/TNFSF15 from R&D Systems, Cat N° 1319-TL”, the “calculated EC50 of TL1A (TRADD-EYFP relocalisation to spots)” value in test [3] (HeLa TRADD DR3 cells) was 0.0043 µg/mL. For the same molecule, the “selectivity: relocalisation” value in test [1] is reported as “not effected”. Turning to `O=C(c1ccc(Nc2nccc(-c3cc4ccccc4s3)n2)cc1)N1CCC(N2CCCC2)CC1` [IKK16], the “effect of downstream signalling inhibitors on detectable EYFP-TRADD clusters” value in test [1] is “no change in detectable EYFP-TRADD clusters”. Still for that read-out and setting: in the case of `C=C1[C@@H](C)[C@H]2[C@H](Cc3ccccc3)NC(=O)[C@]23[C@H](OC(C)=O)/C=C/[C@@](C)(O)C(=O)[C@@H](C)C/C=C/[C@H]3[C@@H]1O` [cytochalasin D] it was “a reduction in detectable EYFP-TRADD clusters”. Regarding “IL1β: Recombinant Human IL1β from Peprotech, Cat N° 200-01B”, in test [1], the “selectivity: relocalisation” value is “not effected”. As to “TRAIL: recombinant human TRAIL from Millipore, Cat N° GF092”, the “selectivity: relocalisation” value in test [1] is on record as “not effected”.

In test [2] (TNF dose=300 ng/ml, FIG. 9), etanercept came in with a concentration for half-maximal inhibition (IC50) of 2740 nM. Besides, the “blocking of TNF-induced relocalisation of fluorescently tagged TRADD to punctuate structures” value in test [2] was “block”. The “dose-dependent inhibition of TL1A-induced relocalisation” value in test [3] (in the presence of 300 ng/ml TL1A) is recorded as “not”. Also, in test [4], the “IC50 on TNF-induced relocalisation” value worked out at 0.0538 µg/mL and the “dose-dependent inhibition of TNF-induced relocalisation” value was “dose-dependently inhibited”. In addition, the “blocking of TNF-induced relocalisation of EYFP-TRADD” value in test [1] (FIG. 13) is on record as “blocks”.

As a reminder, the IC50 is the point on the concentration scale where inhibition reaches its midpoint.
